Data taken from the NIST ThermoML archive (doi:10.1016/j.jct.2010.11.007).
Numbers after ± are expanded uncertainties.

Test: refractive index (Na D-line) (dimensionless); xn = mol fraction of the nth substance listed
Details: 101 kPa, Liquid, Standard Abbe refractometry

## C=CC(C)(O)CCC=C(C)C (stereo not drawn) [3,7-dimethyl-1,6-octadien-3-ol] + CCCO
283.15 K, x1 = 0.0533
  refractive index: 1.39881 ± 0.00032
283.15 K, x1 = 0.1051
  refractive index: 1.40707 ± 0.00033
283.15 K, x1 = 0.2014
  refractive index: 1.41983 ± 0.00033
283.15 K, x1 = 0.3032
  refractive index: 1.43049 ± 0.00035
283.15 K, x1 = 0.3869
  refractive index: 1.43761 ± 0.00036
283.15 K, x1 = 0.4951
  refractive index: 1.44504 ± 0.00038
283.15 K, x1 = 0.5917
  refractive index: 1.45054 ± 0.0004
283.15 K, x1 = 0.6895
  refractive index: 1.45535 ± 0.00042
283.15 K, x1 = 0.7765
  refractive index: 1.45896 ± 0.00044
283.15 K, x1 = 0.8735
  refractive index: 1.46254 ± 0.00047
283.15 K, x1 = 0.9296
  refractive index: 1.46441 ± 0.00048
283.15 K, x1 = 1
  refractive index: 1.4666 ± 0.0005
298.15 K, x1 = 0.0533
  refractive index: 1.39255 ± 0.00033
298.15 K, x1 = 0.1051
  refractive index: 1.40075 ± 0.00033
298.15 K, x1 = 0.2014
  refractive index: 1.41337 ± 0.00034
298.15 K, x1 = 0.3049
  refractive index: 1.42409 ± 0.00035
298.15 K, x1 = 0.3869
  refractive index: 1.43088 ± 0.00036
298.15 K, x1 = 0.4951
  refractive index: 1.4382 ± 0.00038
298.15 K, x1 = 0.5917
  refractive index: 1.44367 ± 0.0004
298.15 K, x1 = 0.6895
  refractive index: 1.4484 ± 0.00042
298.15 K, x1 = 0.7765
  refractive index: 1.45193 ± 0.00044
298.15 K, x1 = 0.8735
  refractive index: 1.45549 ± 0.00047
298.15 K, x1 = 0.9296
  refractive index: 1.4573 ± 0.00048
298.15 K, x1 = 1
  refractive index: 1.45946 ± 0.0005
313.15 K, x1 = 0.0533
  refractive index: 1.38616 ± 0.00033
313.15 K, x1 = 0.1051
  refractive index: 1.39427 ± 0.00033
313.15 K, x1 = 0.2014
  refractive index: 1.40675 ± 0.00034
313.15 K, x1 = 0.3049
  refractive index: 1.41728 ± 0.00035
313.15 K, x1 = 0.3869
  refractive index: 1.42395 ± 0.00036
313.15 K, x1 = 0.4951
  refractive index: 1.43113 ± 0.00038
313.15 K, x1 = 0.5917
  refractive index: 1.43657 ± 0.0004
313.15 K, x1 = 0.6895
  refractive index: 1.44114 ± 0.00042
313.15 K, x1 = 0.7765
  refractive index: 1.44473 ± 0.00044
313.15 K, x1 = 0.8735
  refractive index: 1.44824 ± 0.00047
313.15 K, x1 = 0.9296
  refractive index: 1.44997 ± 0.00048
313.15 K, x1 = 1
  refractive index: 1.45215 ± 0.0005
328.15 K, x1 = 0.0533
  refractive index: 1.3796 ± 0.00033
328.15 K, x1 = 0.1051
  refractive index: 1.38756 ± 0.00033
328.15 K, x1 = 0.2014
  refractive index: 1.39986 ± 0.00034
328.15 K, x1 = 0.3049
  refractive index: 1.41023 ± 0.00035
328.15 K, x1 = 0.3869
  refractive index: 1.41687 ± 0.00036
328.15 K, x1 = 0.4929
  refractive index: 1.42395 ± 0.00038
328.15 K, x1 = 0.5917
  refractive index: 1.42935 ± 0.0004
328.15 K, x1 = 0.6895
  refractive index: 1.4339 ± 0.00042
328.15 K, x1 = 0.767
  refractive index: 1.4371 ± 0.00044
328.15 K, x1 = 0.8735
  refractive index: 1.44085 ± 0.00047
328.15 K, x1 = 0.9296
  refractive index: 1.44249 ± 0.00048
328.15 K, x1 = 1
  refractive index: 1.44473 ± 0.0005
